Experimental findings from PubChem BioAssay (NCI) are described below.

For orientation: TGI means the concentration at which net growth stops. The low end stands for greater sensitivity of the cells, the high end for lower sensitivity of the cells. In general, GI50 refers to the concentration that inhibits growth by half.

SMILES strings stand for the structures. Where “and” joins values, the source holds several entries; their conditions need not be identical. Equal values may be shown once.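 Compound exposure: 48 hours, 5 concentrations, 96-well plates. Here, GI50 denotes the concentration required for 50% inhibition of growth. At the TGI there is no net growth.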

Some test systems named below: NCI-H522 lung; DU-145 prostate; UACC-62 melanoma; MCF7 breast; A498 renal; SK-MEL-2 melanoma; OVCAR-3 ovarian; KM12 colon; PC-3 prostate; UACC-257 melanoma.
What all share (assay): DTP human tumour cell line panel, 48 h

As for `COC(=O)C1OC(O[C@H]2CC[C@]3(C)[C@H]4CC=C5[C@@H]6CC(C)(C)CC[C@]6(C(=O)OC6OCC(O)C(O)C6OC6OC(C)C(OC7OCC(O)C(O)C7O)C(O)C6O)CC[C@@]5(C)[C@]4(C)CC[C@H]3C2(C)C)C(O)C(O)C1O` (stereo partly specified), the TGI was 30.9 µM and 30.5 µM in the assay on NCI-H522 lung; 33.7 µM and 47.8 µM in the assay with DU-145 prostate; 32 µM and 32.5 µM in the assay with UACC-62 melanoma; 27.2 µM and 25.7 µM in the assay with MCF7 breast; 20 µM and 35.3 µM in the assay on A498 renal; 31.8 µM and 34.7 µM with SK-MEL-2 melanoma. In addition, the TGI was 97.6 µM and > 100 µM with OVCAR-3 ovarian; 30.3 µM with KM12 colon; 27.6 µM and 29.5 µM in the assay with PC-3 prostate; 27.4 µM and 29.7 µM in the assay with UACC-257 melanoma. Also, the GI50 in the assay on A498 renal was 7.25 µM and 20.7 µM.

With `Nc1onc2c1Cc1c(noc1N)-c1ccccc1-2`, the TGI in the assay with NCI-H522 lung was over 100 µM; in the assay on DU-145 prostate, over 100 µM; in the assay on UACC-62 melanoma it was over 100 µM; with MCF7 breast, over 100 µM; with A498 renal, 72.2 µM; in the assay on SK-MEL-2 melanoma, over 100 µM. Further, the total growth inhibition concentration (TGI) with OVCAR-3 ovarian, in the assay with KM12 colon, with PC-3 prostate and in the assay on UACC-257 melanoma was over 100 µM throughout.

On to `CCOC(=O)c1c(N2CCOCC2)[nH]c(=O)c(C(c2ccco2)c2c(O)c(C(=O)OCC)c(N3CCOCC3)[nH]c2=O)c1O`, for which the TGI with NCI-H522 lung, with DU-145 prostate, in the assay with UACC-62 melanoma, with MCF7 breast, in the assay on A498 renal and in the assay on SK-MEL-2 melanoma was over 100 µM in each case. In addition, the TGI in the assay on OVCAR-3 ovarian, in the assay with KM12 colon, with PC-3 prostate and in the assay with UACC-257 melanoma was over 100 µM throughout.

For `N[C@H]1CCCC[C@@H]1N1C(=O)c2ccccc2C1(O)c1ccc(Cl)cc1` (stereo partly specified), the TGI in the assay with NCI-H522 lung was 27.8 µM; in the assay on DU-145 prostate, 25.9 µM; in the assay on UACC-62 melanoma, 25.9 µM; in the assay with MCF7 breast it was 27.5 µM; in the assay on A498 renal, 28.1 µM; with SK-MEL-2 melanoma, 30.6 µM. In addition, the TGI with OVCAR-3 ovarian came to 21.5 µM; in the assay with KM12 colon, 9.75 µM; in the assay with PC-3 prostate it was 24.4 µM; with UACC-257 melanoma, 11.7 µM.

Turning to `O=C(O)CN1C(=O)C(Cc2ccc(O)cc2)N=C(c2cccc(O)c2)c2ccccc21` (stereo unspecified), the TGI in the assay on NCI-H522 lung was over 100 µM; with DU-145 prostate it was over 100 µM; in the assay with UACC-62 melanoma it was over 100 µM; with MCF7 breast it was over 100 µM; with A498 renal, 25.3 µM; in the assay on SK-MEL-2 melanoma, over 100 µM. Moreover, the TGI in the assay with OVCAR-3 ovarian, in the assay on KM12 colon, with PC-3 prostate and with UACC-257 melanoma was over 100 µM each time.

For `NC(=S)N/N=C\c1nccc2ccccc12`, the concentration for total growth inhibition (TGI) is 32.5 µM in the assay with NCI-H522 lung; over 100 µM with DU-145 prostate; 0.538 µM in the assay on UACC-62 melanoma; 11.9 µM with MCF7 breast; 2.39 µM in the assay with A498 renal; over 100 µM in the assay with SK-MEL-2 melanoma. Moreover, the TGI in the assay on OVCAR-3 ovarian was over 100 µM; in the assay with KM12 colon it was over 100 µM; with PC-3 prostate, over 100 µM; in the assay on UACC-257 melanoma, over 58.6 µM.

Take `O=C(NNC(=S)NC1CCCCC1)c1csc(NC(=S)NC2CCCCC2)n1`: the TGI with NCI-H522 lung was 28.2 µM; with DU-145 prostate, over 100 µM; in the assay on UACC-62 melanoma it was 22.6 µM; in the assay on MCF7 breast it was over 100 µM; with A498 renal it was 36.3 µM; in the assay with SK-MEL-2 melanoma, 33.7 µM. Besides, the TGI was 16.9 µM in the assay with OVCAR-3 ovarian, 87.6 µM in the assay on KM12 colon, 24.9 µM in the assay on PC-3 prostate and 11.8 µM in the assay with UACC-257 melanoma.

For the molecule `NC(N)=Nc1ccc(CC(N)C(=O)O)cc1` (stereo unspecified), the TGI with NCI-H522 lung, in the assay with DU-145 prostate, in the assay with UACC-62 melanoma, in the assay with MCF7 breast, in the assay on A498 renal and in the assay on SK-MEL-2 melanoma was over 12.5 µM in each case. Moreover, the TGI in the assay on OVCAR-3 ovarian, in the assay with KM12 colon, in the assay with PC-3 prostate and in the assay with UACC-257 melanoma was over 12.5 µM each time.

Turning to `COc1ccc2nc(-c3ccc(O)cc3)sc2c1`, the TGI in the assay on NCI-H522 lung is 31.2 µM; in the assay with DU-145 prostate, over 100 µM; in the assay with UACC-62 melanoma, 42.9 µM; in the assay with MCF7 breast it was over 100 µM; in the assay with A498 renal it was 85.7 µM; with SK-MEL-2 melanoma it was over 100 µM. Besides, the TGI in the assay with OVCAR-3 ovarian was determined as 36.2 µM; in the assay with KM12 colon, 86.9 µM; with PC-3 prostate, 45.2 µM; in the assay with UACC-257 melanoma it was 39 µM.

Turning to `C=C(C)[C@@H]1CCC2=C[C@H](OC2=O)[C@@]2(C)C[C@@H]2C2=CC(C)=C(O2)[C@H]1O`, the TGI was 48.2 µM with NCI-H522 lung; over 75 µM with DU-145 prostate; over 75 µM in the assay on UACC-62 melanoma; over 75 µM with MCF7 breast; over 75 µM with A498 renal; over 75 µM with SK-MEL-2 melanoma. Also, the TGI in the assay with OVCAR-3 ovarian, in the assay with KM12 colon, in the assay on PC-3 prostate and in the assay on UACC-257 melanoma was over 75 µM throughout.
